Experimental findings from patent publication US20230012368A1 (Hoffmann-La Roche Inc., priority 2018, published 2023) are described below.

As a reminder, the IC90 is the point of the concentration-response curve where the effect stands at 90%.

Counter-ions that a name gives are not always drawn.

One test relates to Acinetobacter baumannii ATCC 17978. In words: Antimicrobial susceptibility testing: 90% growth inhibitory concentration (IC90) determination. It counts as cell-based. As to conditions: 90% growth inhibitory concentration; Acinetobacter baumannii ATCC17978; Iso-Sensitest broth, OD 600 nm over 16h; read-out: ATCC17978 IC90. In a few lines:
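Compounds serially twofold diluted (e.g. 50 to 0.097 μM final) in Iso-Sensitest broth, inoculated at ~5×10^(5) CFU/ml, incubated at 35±2° C. OD600 read every 20 minutes over 16h. IC90 taken as concentration inhibiting 90% of growth during logarithmic phase.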
Consider `COc1ccc(-c2cnc3c(Nc4ccc(C(=O)NCCCCN)c(Cl)c4)nccn23)c(F)c1F` [Example 515, N-(4-aminobutyl)-2-chloro-4-((3-(2,3-difluoro-4-methoxyphenyl)imidazo[1,2-a]pyrazin-8-yl)amino)benzamide hydrochloride], for which the IC90 came out at 42 nM.

The test is the same for the next values; noted with them: Acinetobacter baumannii, ATCC17978, 16 h, 90% growth inhibitory concentration; Acinetobacter baumannii ATCC17978; Iso-Sensitest broth, OD 600 nm over 16h; read-out: ATCC17978 IC90.
On to `COc1ccc(-c2cnc3c(Nc4ccc(C(=O)N[C@@H](C)CNC(=N)C(C)C)c(Cl)c4)nccn23)c(F)c1F` [Example 500, 2-chloro-4-[[3-(2,3-difluoro-4-methoxyphenyl)imidazo[1,2-a]pyrazin-8-yl]amino]-#N!- [(2#S!)-1-(2-methylpropanimidoylamino)propan-2-yl]benzamide], for which the IC90 turned out to be 310 nM. `COc1ccc(-c2cnc3c(Nc4ccc(C(=O)N(C)CCCN)c(C)c4)nccn23)cc1` [Example 34, N-(3-aminopropyl)-4-((3-(4-methoxyphenyl)imidazo [1,2-a]pyrazin-8-yl)amino)-N,2-dimethylbenzamide hydrochloride]: the IC90 came out at 1100 nM. The same measure, in the same setting: to `CCc1cc(Nc2nccn3c(-c4ccc(OC)c(F)c4F)cnc23)ccc1C(=O)NCCNC(=O)CCCCNC(=N)N` [Example 139, 4-[[3-(2,3-difluoro-4-methoxy-phenyl)imidazo[1,2-a]pyrazin-8-yl]amino]-2-ethyl-N-[2-(5-guanidino-pentanoylamino)ethyl]benzamide formate] belongs 60 nM; to `CCc1cc(Nc2nccn3c(-c4ccc(OC(F)F)c(F)c4F)cnc23)ccc1C(=O)NCCCNC(=O)CN(C)C` [Example 324, 4-[[3-[4-(difluoromethoxy)-2,3-difluorophenyl]imidazo[1,2-a]pyrazin-8-yl]amino]-N-[3-[[2-(dimethylamino)acetyl]amino]propyl]-2-ethylbenzamide], 110 nM. On the same count and under the same terms, to `CCc1cc(Nc2nccn3c(-c4ccc(OC)c(F)c4F)cnc23)ccc1C(=O)NCCNC(=O)[C@@H](N)CCNC(=N)N` [Example 131, N-[2-[[(2S)-2-amino-4-guanidino-butanoyl]amino]ethyl]-4-[[3-(2,3-difluoro-4-methoxy-phenyl)imidazo[1,2-a]pyrazin-8-yl]amino]-2-ethyl-benzamide formate] belongs 90 nM.

Turning to `COc1ccc(-c2cnc3c(Nc4ccc(C(=O)NCCCN)c(CCF)c4)nccn23)c(F)c1F` [Example 392, N-(3-aminopropyl)-4-[[3-(2,3-difluoro-4-methoxy-phenyl)imidazo[1,2-a]pyrazin-8-yl]amino]-2-(2-fluoroethyl)benzamide], the concentration for an effect of 90% (IC90) was 340 nM.

Regarding `COc1ccc(-c2cnc3c(Nc4ccc(C(=O)NCCCCCCN)c(C)c4)nccn23)c(F)c1F` [Example 493, N-(6-aminohexyl)-4-((3-(2,3-difluoro-4-methoxyphenyl)imidazo[1,2-a]pyrazin-8-yl)amino)-2-methylbenzamide hydrochloride], the concentration for an effect of 90% (IC90) is 35 nM. Same read-out and setting: to `Cc1cc(Nc2nccn3c(-c4ccc(OC(F)F)cc4)cnc23)ccc1C(=O)N(C)CCCCN` [Example 200, N-(4-aminobutyl)-4-[[3-[4-(difluoromethoxy)phenyl]im-idazo[1,2-a]pyrazin-8-yl]amino]-N,2-dimethylbenzamide;hydrochlo-ride] belongs 440 nM. For `COc1ccc(-c2cnc3c(Nc4ccc(C(=O)N(C)CCn5ccnc5)c(C)c4)nccn23)cc1F` [Example 105, 4-[[3-(3-fluoro-4-methoxy-phenyl)imidazo[1,2-a]pyrazin-8-yl]amino]-N-(2-imidazol-1-ylethyl)-N,2-dimethyl-benzamide], the 90% effect concentration (IC90) came out at 820 nM. Consider `CCc1cc(Nc2nccn3c(-c4ccc(Cl)c(F)c4F)cnc23)ccc1C(=O)NCCCN1CCC1` [Example 386, N-[3-(azetidin-1-yl)propyl]-4-[[3-(4-chloro-2,3-difluorophenyl)imidazo[1,2-a]pyrazin-8-yl]amino]-2-ethylbenzamide], for which the IC90 came out at 950 nM. The same measure, in the same setting: to `COc1ccc(-c2cnc3c(Nc4ccc(C(=O)N(C)C)cc4)nccn23)cc1` [Example 231, 4-[[3-(4-methoxyphenyl)imidazo[1,2-a]pyrazin-8-yl]amino]-N,N-dimethylbenzamide] belongs 400 nM; to `COc1ccc(-c2cnc3c(Nc4ccc(C(=O)NCC5(O)CCNC5)c(C)c4)nccn23)cc1F` (stereo not drawn) [Example 286, 4-[[3-(3-fluoro-4-methoxyphenyl)imidazo[1,2-a]pyrazin-8-yl]amino]-N-[(3-hydroxypyrrolidin-3-yl)methyl]-2-methylbenzamide;2,2,2-trifluoroacetic acid], 2700 nM; to `CCc1cc(Nc2nccn3c(-c4ccc(OC)c(F)c4F)cnc23)ccc1C(=O)N[C@@H](C)CNC(C)=N` [Example 480, 4-[[3-(2,3-difluoro-4-methoxyphenyl)imidazo[1,2-a]pyrazin-8-yl]amino]-#N!- [(2#S!)-1-(ethanimidoylamino)propan-2-yl]-2-ethylbenzamide;formic acid], 270 nM. Same read-out and setting: to `CCc1cc(Nc2nccn3c(-c4ccc(OC(F)F)c(F)c4F)cnc23)ccc1C(=O)NCCCN1CCCC1` [Example 95, 4-((3-(4-(difluoromethoxy)-2,3-difluorophenyl)imidazo [1,2-a]pyrazin-8-yl)amino)-2-ethyl-N-(3-(pyrrolidin-1-yl)propyl)benzamide] belongs 190 nM; to `COc1ccc(-c2cnc3c(Nc4ccc(C(=O)NCCCCN)c(C)c4)nccn23)c(F)c1F` [Example 513, N-(4-aminobutyl)-4-((3-(2,3-difluoro-4-methoxyphenyl)imidazo[1,2-a]pyrazin-8-yl)amino)-2-methylbenzamide hydrochloride], 50 nM; to `N#CCOc1ccc(-c2cnc3c(Nc4ccc(C(=O)NCCCCCCN)c(Cl)c4)nccn23)c(F)c1F` [Example 497, N-(6-aminohexyl)-2-chloro-4-((3-(4-(cyanomethoxy)-2,3-difluorophenyl)imidazo[1,2-a]pyrazin-8-yl)amino)benzamide], 25 nM. The same measure, in the same setting: to `CCc1cc(Nc2nccn3c(-c4ccc(OCC#N)c(F)c4F)cnc23)ccc1C(=O)NCCNC(=O)[C@@H](N)[C@@H](C)O` [Example 138, N-[2-[[(2S,3R)-2-amino-3-hydroxy-butanoyl]amino]ethyl]-4-[[3-[4-(cyanomethoxy)-2,3-difluoro-phenyl]imidazo[1,2-a]pyrazin-8-yl]amino]-2-ethyl-benzamide formate] belongs 100 nM; to `N#CCOc1ccc(-c2cnc3c(Nc4ccc(C(=O)NCCc5ccncc5)c(Cl)c4)nccn23)c(F)c1Cl` [Example 80, 2-chloro-4-[[3-[3-chloro-4-(cyanomethoxy)-2-fluoro-phenyl]imidazo[1,2-a]pyrazin-8-yl]amino]-N-[2-(4-pyridyl)ethyl] benzamide], 270 nM. Take `COc1ccc(-c2cnc3c(Nc4ccc(C(=O)NCCCCCCCN)c(Cl)c4)nccn23)c(F)c1F` [Example 518, N-(7-aminoheptyl)-2-chloro-4-((3-(2,3-difluoro-4-methoxyphenyl)imidazo[1,2-a]pyrazin-8-yl)amino)benzamide hydrochloride]: the IC90 came to 171 nM. Still for that read-out and setting: to `Cc1cc(Nc2nccn3c(-c4ccc(Cl)c(F)c4F)cnc23)ccc1C(=O)NCC1CCNCC1` [Example 253, 4-[[3-(4-chloro-2,3-difluorophenyl)imidazo[1,2-a]pyrazin-8-yl]amino]-2-methyl-N-(piperidin-4-ylmethyl)benzamide; hydrochlo-ride] belongs 2900 nM.
